The values below come from the METLIN SMRT retention time set (Domingo-Almenara et al. 2019).

This data set in a line: gradient 5% acetonitrile 3 min, to 50% in 2 min, to 85% in 15 min, held 3 min, 100 µL/min. Conditions: column: Zorbax Extend-C18 2.1 x 50 mm; eluents: water / acetonitrile, 0.1% formic acid. The method, boiled down: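 In both positive and negative ionization mode, a quadrupole time-of-flight mass spectrometer coupled to HPLC analyzed pure standards run in mixtures of ~100 molecules. The Zorbax Extend-C18 column (2.1 × 50 mm, 1.8 μm) was operated at 100 μL/min with water and acetonitrile, each containing 0.1% formic acid. The dead volume was 40 μL and the dwell volume 900 μL. Retention time came from adduct peaks that were computationally picked and individually inspected by hand.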
Consider `COc1cccc(-c2cc(C(=O)N3CC(c4nc(-c5cccs5)no4)C3)[nH]n2)c1`, for which the RP-LC retention time worked out at 798 s.

Turning to `Cc1cccc(-c2cc(C(N)=O)c3ccccc3n2)c1`, the RP-LC retention time turned out to be 816 s.

Take `O=C(Nc1ccnn1Cc1ccco1)C(c1ccccc1)c1ccccc1`: the RP-LC retention time was 926 s.

The compound `Cc1oc(-c2[nH]ncc2C(=O)N(C)C)cc1S(=O)(=O)N1CCN(c2ccccc2)CC1` registered an RP-LC retention time of 746 s.

Compound `CC1=C(c2ccc(Cl)cc2)S(=O)(=O)N=C1N1CCC(NC(=O)C2CCCO2)CC1` (centres undefined) had an RP-LC retention time of 779 s.

`O=C(Nc1cccc(Cl)c1)Nc1ncc(CCNc2ncnc3ccsc23)s1` registered an RP-LC retention time of 721 s.

On to `O=C([C@@H]1C[C@H](F)CN1C(=O)c1ccc(F)cc1)N1CCOCC1`, for which the RP-LC retention time was 608 s.

The compound `CNC(=O)c1cnn(-c2ccc(-c3nc(C4CC4)no3)cn2)c1C` yielded an RP-LC retention time of 746 s.

In the case of `O=C(Cc1cccs1)N1CCCn2nc(-c3ccncc3)cc2C1`, the RP-LC retention time was determined as 591 s.

In turn, `O=C1CC(c2noc(-c3ccc(F)cc3)n2)CN1Cc1ccccc1` (centres undefined) had an RP-LC retention time of 931 s.

The compound `O=C(NCCCn1cccn1)C1CN(S(=O)(=O)c2ccccc2)CC12CCCCC2` (centres undefined) came in with an RP-LC retention time of 819 s.

The compound `COc1ccc(NC(=O)Cn2c(=O)c3cc(C4CC4)nn3c3ncccc32)c(OC)c1` had an RP-LC retention time of 772 s.

As for `O=C(NC1CCN(Cc2ccccc2)CC1)C1CCCN(c2cnc3nccnc3c2)C1` (centres undefined), the RP-LC retention time worked out at 907 s.

Regarding `COC(=O)c1cc(-c2cccc(N)c2)nc2ccccc12`, the RP-LC retention time was 749 s.

The compound `Cn1c(N2CCCN(C(=O)COc3ccc(Cl)cc3)CC2)cc(=O)n(C)c1=O` had an RP-LC retention time of 658 s.

Consider `CCCC(NC(=O)c1cccc(N(C)C)c1)C(=O)Nc1nc2ccccc2[nH]1` (centres undefined), for which the RP-LC retention time was 667 s.

In the case of `Nc1ncnc(N2CCc3ccccc32)c1[N+](=O)[O-]`, the RP-LC retention time was determined as 697 s.

As to `CN1C2CCC1CC(NC(=O)c1nn(C)c3ccccc13)C2` (centres undefined), the RP-LC retention time turned out to be 655 s.

`CCCn1c(=O)sc2cc(S(=O)(=O)N3CCC(C(=O)N(C)Cc4ccco4)CC3)ccc21` gave an RP-LC retention time of 901 s.

In turn, `COc1ccc(Cn2c(C)c(CNCc3ccco3)c(C(=O)O)c2C)cc1` came in with an RP-LC retention time of 673 s.

As for `CC1(C)CN(C(=O)C2CC2)c2ccc(S(=O)(=O)N3CCN(c4ccccn4)CC3)cc21`, the RP-LC retention time was found to be 692 s.

For the compound `Cc1ccc2ncn(C3CCN(C(=O)Nc4cc(Cl)ccc4C)CC3)c(=O)c2c1`, the RP-LC retention time worked out at 911 s.

In turn, `COc1cccc(NC(=O)C2(C)Oc3cccnc3N(C)C2=O)c1` (centres undefined) came in with an RP-LC retention time of 808 s.

The compound `Cn1c(=O)c(N2CCC(C(=O)NCCc3c[nH]c4ccc(Cl)cc34)CC2)nc2ccccc21` displayed an RP-LC retention time of 892 s.

Take `O=C(NC1CCCC1)c1ccc2c(c1)N(Cc1ccccc1)C(=O)CO2`: the RP-LC retention time is 873 s.

Take `Cn1cnc2c(C(=O)NC3CCCCC3)nn(-c3cccc(Cl)c3)c2c1=O`: the RP-LC retention time was 975 s.

For the compound `O=C1NCCCCCCN[C@H]2C[C@H](C(=O)N3CCc4ccccc4C3)C[C@@H]12`, the RP-LC retention time turned out to be 612 s.

For the compound `CCn1cc(CN2CCC(C(=O)NCc3ccco3)CC2)c2cc(Cl)ccc21`, the RP-LC retention time was found to be 722 s.

Consider `COc1ccc(NC(=O)c2noc3c2CCCC3)c(OC)c1`, for which the RP-LC retention time is 1170 s.

Take `Cc1ccc2c(c1)N(CCC(C)C)N=C(C(=O)N1CCCC1)S2(=O)=O`: the RP-LC retention time was determined as 939 s.

Consider `NC(=O)C1CCN(C(=O)CN2c3ccc(Br)cc3-c3ccccc3S2(=O)=O)CC1`, for which the RP-LC retention time came to 705 s.

Regarding `Cc1ccc(N2CC(c3nc(-c4ccc(CNC(=O)C5CC5)s4)no3)CC2=O)cc1C` (centres undefined), the RP-LC retention time amounted to 874 s.

`Cc1ccc(-c2nc3ncccn3c2Nc2cc(C)cc(C)c2)cc1` gave an RP-LC retention time of 866 s.

In turn, `O=C(Nc1ccc(N2CCOCC2)cc1)c1cccs1` gave an RP-LC retention time of 658 s.

The compound `CCc1ccccc1NC(=O)CSc1cc(N2CCN(c3ccccc3OC)CC2)ncn1` showed an RP-LC retention time of 1040 s.

Compound `Cc1nc(OCC(=O)NCCN2CCCC2)c2c(-c3ccccc3)noc2n1` returned an RP-LC retention time of 627 s.

Regarding `Cc1nc(N2CCCC(C(=O)NC3CCCC3)C2)c2c(C)c(C)oc2n1` (centres undefined), the RP-LC retention time is 799 s.

Consider `CCc1ccccc1NC(=O)Cn1c(=O)nc(N2CCC(C)CC2)c2ccccc21`, for which the RP-LC retention time was 898 s.

The compound `COc1cc(C(=O)N2CC(=O)Nc3ccc(F)cc3C2c2ccccc2)cc(OC)c1OC` (centres undefined) displayed an RP-LC retention time of 906 s.

`CN1c2cc(C(=O)N3CCN(c4ccccc4F)CC3)ccc2C(=O)N2CCCCC21` (centres undefined): the RP-LC retention time was 877 s.

`CCc1ccccc1NC(=O)CSc1nnc2c3cc(-c4ccc(C)c(C)c4)nn3ccn12` gave an RP-LC retention time of 1050 s.

`CCC(C)(C)NC(=O)Cn1ncc2c(N3CCN(c4ccccn4)CC3)ncnc21` returned an RP-LC retention time of 587 s.

In turn, `Cc1ccccc1-c1nnc(CSc2nnc(NC(=O)c3cccc(Cl)c3)s2)o1` had an RP-LC retention time of 1040 s.

Consider `CCN(CC)CCNC(=O)C1CCN(c2nc3ccccc3n3cccc23)CC1`, for which the RP-LC retention time came to 579 s.

For `O=C(c1c(OCC2CC2)cc(=O)n2c1CCCCC2)N1CCN(c2ccccn2)CC1`, the RP-LC retention time is 563 s.

The compound `O=C(Cc1csc(Nc2ccc(Cl)cn2)n1)Nc1ccc(OC(F)(F)F)cc1` gave an RP-LC retention time of 1030 s.

In the case of `CCCNC(=O)N(CC(=O)N1CCc2sccc2C1COc1ccccc1)CC1CCCO1` (centres undefined), the RP-LC retention time worked out at 911 s.

As for `O=C(NCc1ccccn1)c1nnn(Cc2ccc(Cl)cc2)c1-n1cccc1`, the RP-LC retention time was determined as 760 s.

The compound `CCN1C(=O)CC[C@]2(CN(C)C(=O)Cc3cccc(F)c3)CCC[C@@H]12` yielded an RP-LC retention time of 752 s.

For the compound `CCn1cc(C(=O)NCc2cccc(Br)c2)c2cccnc21`, the RP-LC retention time came out at 854 s.

In the case of `CCN(C(=O)c1ccc(OC)c(OC)c1)c1nc(-c2ccc(Br)cc2)cs1`, the RP-LC retention time came to 1270 s.

`O=C(Cn1nc(N2CCOCC2)c2ccccc2c1=O)Nc1ccccc1F` showed an RP-LC retention time of 790 s.

As to `O=C(Cn1c(=O)nc(-c2ccccc2)c2ccccc21)NCCc1ccccn1`, the RP-LC retention time stood at 590 s.

`COc1ccc(OCc2noc(CNS(=O)(=O)CCN3C(=O)CCCC3=O)n2)cc1` came in with an RP-LC retention time of 693 s.

In turn, `O=C(O)c1ccc2c(c1)n(Cc1cccc(F)c1)c(=O)c1ccnn12` came in with an RP-LC retention time of 784 s.

`Cc1ccc(S(=O)(=O)N2C[C@@H](F)C[C@H]2C(=O)N2CCCCC2)cc1F` returned an RP-LC retention time of 836 s.

On to `O=C(NC1CC1)[C@@H]1C[C@H](Oc2ccccc2)CN1C(=O)C1(c2ccccc2)CC1`, for which the RP-LC retention time came out at 855 s.

Regarding `Cc1cccc(NC(=O)N2[C@H]3CC[C@@H]2c2cnc(-c4ccccc4)nc2C3)c1`, the RP-LC retention time stood at 982 s.

Turning to `Cc1cc(C)n(CC(O)COc2ccc(C(=O)c3ccc(Cl)cc3)cc2)n1` (centres undefined), the RP-LC retention time stood at 848 s.

`CC(C)C(=O)N1CCc2ccc(NC(=O)c3ccc(Cl)c(Cl)c3)cc2C1` came in with an RP-LC retention time of 901 s.

In the case of `CCOc1ccccc1NC(=O)COc1nc(CC)nc2ccccc12`, the RP-LC retention time came to 884 s.

Turning to `Cc1ccc(CSc2nnc3c(S(=O)(=O)N4CCCC4)cccn23)cc1`, the RP-LC retention time worked out at 852 s.

In the case of `Cc1ccc(N2C=C(C(=O)N3CCOCC3)S(=O)(=O)c3ccc(Cl)cc32)cc1Cl`, the RP-LC retention time worked out at 970 s.

The compound `O=C(NC1CCCC1)C1CCCN(c2ncnc3c2oc2ccccc23)C1` (centres undefined) registered an RP-LC retention time of 713 s.

Consider `Clc1ccc(-c2ccc(CNCc3ccccn3)o2)c(Cl)c1`, for which the RP-LC retention time came to 734 s.

The compound `O=C(Cn1nc2c(cc1=O)CCCC2)NCCc1nc(-c2ccccc2)cs1` yielded an RP-LC retention time of 784 s.

`Cc1nc(-c2ccc3c(c2)CCN3C(=O)Cc2cccs2)cs1` displayed an RP-LC retention time of 965 s.

`Cc1ccc(NC(=O)N2CCC(C(C)C(=O)Nc3cc(C)cc(C)c3)CC2)cc1` (centres undefined) registered an RP-LC retention time of 970 s.

The compound `CCOC(=O)c1cc(C2CC2)nc2c1c(=O)n(Cc1ccc(C)cc1)c(=O)n2C` registered an RP-LC retention time of 1260 s.

Compound `Cc1ccccc1CNC(=O)c1cn(-c2ccc(-c3nc(C4CC4)no3)cn2)cn1` had an RP-LC retention time of 973 s.

On to `CCOc1ccc(CNC(=O)c2cnc(N3CCN(C4CCCCC4)CC3)nc2N)cc1`, for which the RP-LC retention time was determined as 658 s.

`O=C(Nc1ccc(F)cc1)Nc1ccc2nncn2c1` gave an RP-LC retention time of 659 s.

`COc1ccc(NC(=O)C(C)n2cnc3nc4c(cc3c2=O)CCCC4)cc1OC` (centres undefined) displayed an RP-LC retention time of 685 s.

The compound `O=C(Nc1cccc(Br)c1)C1CCCN(c2ncc(-c3ccccc3)cn2)C1` (centres undefined) had an RP-LC retention time of 1250 s.

`Cc1ccccc1CNC(=O)C1CCCN(c2nc3ccsc3c(=O)n2Cc2ccc(F)cc2)C1` (centres undefined) came in with an RP-LC retention time of 1010 s.

`Cc1nc(C)c(C(=O)N2CCCC2c2nc(-c3ccc(F)cc3F)no2)s1` (centres undefined): the RP-LC retention time amounted to 837 s.

`CCc1ccccc1NC(=O)C1CCCN(c2nc3ccccc3nc2C(F)(F)F)C1` (centres undefined) showed an RP-LC retention time of 1200 s.

`CC(C)N1C(=O)C(C)(C(=O)NCc2ccc(F)cc2)Oc2cccnc21` (centres undefined) gave an RP-LC retention time of 984 s.

`O=C(NCc1cc(F)cc(F)c1)C1CCCN(c2cnc3nccnc3c2)C1` (centres undefined) returned an RP-LC retention time of 707 s.
